Source: ChEMBL document CHEMBL5726109, “Histone deacetylase inhibitors and compositions and methods of use thereof” (2017)
pIC50: −log10 of the molar value.

Target: Histone deacetylase 4 (Homo sapiens, UniProt P56524)
Experiment: Inhibition Assay: 2 μl (200×) of each diluted solution and each control (full activity: 100% DMSO alone or full inhibition 1 mM) is stamped into V-bottomed polypropylene 384-well compound plates using either the Bravo (384-well head from Agilent) or 12.5 μl 16-channel Matrix multi-channel pipette (Matrix Technologies Ltd).

Histone deacetylase 4, sequence (P56524 whole entry): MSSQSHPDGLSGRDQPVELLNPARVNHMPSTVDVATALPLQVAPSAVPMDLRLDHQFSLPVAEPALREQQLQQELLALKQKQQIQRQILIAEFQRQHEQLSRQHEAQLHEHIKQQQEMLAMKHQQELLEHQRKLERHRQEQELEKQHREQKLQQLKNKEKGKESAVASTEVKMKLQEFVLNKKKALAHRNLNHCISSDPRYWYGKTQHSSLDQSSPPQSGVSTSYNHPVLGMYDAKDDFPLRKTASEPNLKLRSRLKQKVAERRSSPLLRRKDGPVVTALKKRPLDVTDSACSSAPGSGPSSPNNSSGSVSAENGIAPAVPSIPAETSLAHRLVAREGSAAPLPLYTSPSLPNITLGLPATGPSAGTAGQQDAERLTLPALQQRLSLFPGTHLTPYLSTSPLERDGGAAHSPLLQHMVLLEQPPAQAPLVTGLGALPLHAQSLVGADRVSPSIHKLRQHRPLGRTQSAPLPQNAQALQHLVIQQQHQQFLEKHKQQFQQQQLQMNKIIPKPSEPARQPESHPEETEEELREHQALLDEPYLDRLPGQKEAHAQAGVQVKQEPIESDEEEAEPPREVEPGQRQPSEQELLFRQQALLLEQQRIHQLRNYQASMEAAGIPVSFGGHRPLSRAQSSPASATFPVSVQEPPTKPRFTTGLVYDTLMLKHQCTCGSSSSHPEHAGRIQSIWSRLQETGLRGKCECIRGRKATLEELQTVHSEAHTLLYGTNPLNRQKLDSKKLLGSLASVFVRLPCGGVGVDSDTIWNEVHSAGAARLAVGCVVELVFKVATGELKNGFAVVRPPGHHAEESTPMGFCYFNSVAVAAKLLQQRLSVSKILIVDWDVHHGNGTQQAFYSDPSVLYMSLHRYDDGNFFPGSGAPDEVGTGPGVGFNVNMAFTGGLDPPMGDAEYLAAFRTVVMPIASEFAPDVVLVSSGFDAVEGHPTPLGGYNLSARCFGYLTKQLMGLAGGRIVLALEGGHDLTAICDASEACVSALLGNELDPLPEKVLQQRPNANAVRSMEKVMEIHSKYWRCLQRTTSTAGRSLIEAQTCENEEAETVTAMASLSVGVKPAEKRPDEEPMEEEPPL

Compound Cc1c(F)cccc1[C@@]1(C(=O)NO)C=C(c2cnccn2)CC1 has a pIC50 of 5.62.
